Where two headings read alike, the source gives them in different places. Blank lines part the entries; values can stand above or below the molecule they belong to.
What was measured:
[1] = system: carrageenin-induced paw edema; settings: in vivo; cited from earlier work
platelets = settings: cited from earlier work
isolated portal veins = settings: mice; cited from earlier work
blood vessels = settings: mouse and rat; cited from earlier work
[2] = system: isolated rat right atrium; experiment: Isolated rat right atrium pretreated with reserpine; assay type: cell-based
in vivo = settings: mouse, mice, read-out: LD50 (95% C.L.)
[3] = system: acetic acid-induced writhing syndrome; experiment: Acetic acid-induced writhing (antinociceptive test); assay type: in vivo, male mice (ddk strain)
Procedure: Following the method described by Koster antinociceptive tests were carried out in male mice after intraperitoneal administration of test solution. […] The test solution was administered by intraperitoneal injection of a single dose 0.2 ml (vehicle administered as control). Twenty minutes after injection, 0.2 ml of 0.7% acetic acid was injected intraperitoneally to induce writhing.

[4] = system: platelet aggregation induced by collagen; experiment: Collagen-induced platelet aggregation in platelet rich plasma; assay type: cell-based; settings: 10 μg/ml collagen, PRP
Procedure: A monophasic aggregation curve was observed when 10 μg/ml of collagen was added to platelet rich plasma (PRP).

β2 adrenergic receptor = biological target: T1, β2 adrenergic receptor (Rattus norvegicus, UniProt P10608); experiment: Antagonism of isoproterenolol on isolated rat uterus horns; assay type: cell-based; settings: 10^-8 -10^-6 M isoproterenolol
T1 construct: from tissue; host or cells: rat uterus horns (isolated organ, stilbestrol and reserpine pretreated)
T1 sequence (P10608 whole entry): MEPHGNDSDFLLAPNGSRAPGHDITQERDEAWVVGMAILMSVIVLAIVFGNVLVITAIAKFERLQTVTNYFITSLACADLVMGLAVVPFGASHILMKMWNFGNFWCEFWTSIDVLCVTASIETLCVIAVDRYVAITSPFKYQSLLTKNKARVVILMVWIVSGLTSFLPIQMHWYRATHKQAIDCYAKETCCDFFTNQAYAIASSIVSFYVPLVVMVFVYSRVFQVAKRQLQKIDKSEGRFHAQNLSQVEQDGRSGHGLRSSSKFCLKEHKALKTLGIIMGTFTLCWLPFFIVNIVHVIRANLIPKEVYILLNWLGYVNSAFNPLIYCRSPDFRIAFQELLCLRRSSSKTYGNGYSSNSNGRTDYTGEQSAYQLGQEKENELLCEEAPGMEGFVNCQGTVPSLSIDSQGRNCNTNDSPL
Procedure: Female rats were intraperitonealy injected with stilbestrol (1 mg/kg) to elevate the sensitivity of β2 adrenergic receptor in uterus horns. The rats were subsequently administered reserpine to deplete the catecholamine in uterus. The isolated uterus horns were treated with phenoxybenzamine to block the neuronal uptake and the interaction between neuron cells and the adrenergic receptor.

[5] = system: heart rate and blood pressure; experiment: Heart rate and blood pressure of anesthetized rats (i.v.); assay type: in vivo; settings: isoproterenolol 0.5 mg/kg
Source text: […]. The effect of DZN on heart rate and blood pressure were monitored.
[…]. Exp. Ther., vol. 96, 99-113). The ID50 value is the response of a β drug which produces a response in 50% of […].

β1 and β2 receptors = settings: cited from earlier work
[6] = system: heart rate and blood pressure; experiment: Heart rate and blood pressure changes of rats induced by guaiacoxypropanolamines; assay type: in vivo; settings: 1.0 mg/kg iv, means ± SE (n = 8)
[7] = biological target: T2, Isolated Guinea Pig Atria (Cavia porcellus, UniProt H0W3H1); experiment: pA2 on isolated guinea pig atria; assay type: cell-based; settings: for Kb: isolated guinea pig atria
T2 construct: Isolated Guinea Pig Atria; from tissue; host or cells: guinea pig atria (isolated organ)
T2 sequence (H0W3H1 1-470): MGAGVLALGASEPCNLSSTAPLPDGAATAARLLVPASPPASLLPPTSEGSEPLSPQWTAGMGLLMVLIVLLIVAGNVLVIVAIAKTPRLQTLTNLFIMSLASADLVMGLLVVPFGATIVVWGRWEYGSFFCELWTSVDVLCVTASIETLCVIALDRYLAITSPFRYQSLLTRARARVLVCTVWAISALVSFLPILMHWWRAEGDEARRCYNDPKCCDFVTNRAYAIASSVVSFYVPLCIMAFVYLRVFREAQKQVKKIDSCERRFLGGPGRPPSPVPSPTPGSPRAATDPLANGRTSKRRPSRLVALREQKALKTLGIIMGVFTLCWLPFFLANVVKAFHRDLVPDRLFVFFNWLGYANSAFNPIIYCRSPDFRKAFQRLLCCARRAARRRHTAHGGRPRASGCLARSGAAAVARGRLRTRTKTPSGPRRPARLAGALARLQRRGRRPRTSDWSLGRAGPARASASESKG
Source text: The determination of the pA2 is made from experiments in which a fixed concentration of the antagonist is used along with graded concentrations of an agonist acting on the same receptor. The presence of the antagonist shifts the agonist dose-response curve to the right.

Structure (SMILES): CCCCC/C=C/C(=O)CCc1ccc(O)c(OC)c1 [Shogaol]
- carrageenin-induced paw edema [1]: inhibitory activity
- platelet aggregation (platelets): inhibitory activity

Structure (SMILES): CCCCC[C@H](O)CC(=O)CCc1ccc(O)c(OC)c1 [Gingerol]
- contraction of isolated portal veins (isolated portal veins): suppresses the contraction of isolated portal veins in mice
- eicosanoid-induced contraction of blood vessels (blood vessels): modulates the eicosanoid-induced contraction of mouse and rat blood vessels

Structure (SMILES): COc1cc(C=CC(C)=O)ccc1O [DZ, 4-(4'-hydroxy-3'-methoxyphenyl)-3-buten-2-one]
- effect on heart rate ([2]; 10^-9 -10^-5 M): did not affect the heart rate within 10^-9 -10^-5 M
- LD50 (in vivo; ip): > 1000 mg/kg
- LD50 (in vivo; po): > 1000 mg/kg
- Protection ([3]; 1.25 mg/kg i.p., N = 8): 63.06%
- Writhes No. (Ave. ± S.E.) ([3]; 1.25 mg/kg i.p., N = 8): 29.60 ± 3.75
- ED50 ([3]; Mus musculus, ip, mice, Litchfield and Wilcoxon method, read-out: ED50 (95% C.I.)): 0.38 mg/kg
- inhibition of collagen-induced platelet aggregation [4]: dose-dependent inhibition of platelet aggregation
- IC100 ([4]; Platelet, FIG. 18, read-out: concentration completely inhibiting platelet aggregation): 250 µM

Structure (SMILES): CC(C)NCC(O)c1ccc(O)c(O)c1 (stereo not shown) [isoproterenolol, reference compound]
- effect on heart rate and contraction force ([2]; FIG. 16): increases the heart rate and contraction force
- concentration of isoproterenolol giving maximum effect ([2]; FIG. 17): 3 µM
- effect on isolated uterus horn smooth muscle (β2 adrenergic receptor): dose-related decrease in relaxation force
- effect on blood pressure [5]: decreased blood pressure
- effect on heart rate [5]: increased the heart rate

Structure (SMILES): CCCC(=O)Nc1ccc(OCC(O)CNC(C)C)c(C(C)=O)c1 (stereo not shown) [Acebutolol]
- cardioselectivity (β1 and β2 receptors): possess cardioselectivity

Structure (SMILES): CC(C)NCC(O)COc1ccc(CC(N)=O)cc1 (racemic) [Atenolol, reference compound]
- cardioselectivity (β1 and β2 receptors): possess cardioselectivity

- Kb ([7]; read-out: pA2, positive chronotropic (converted)): 93.3 nM
- Kb ([7]; read-out: pA2, positive inotropic (converted)): 25.1 nM
- Potency ratio (PR), positive chronotropic ([7]; with respect to propranolol): 0.08
- Potency ratio (PR), positive inotropic ([7]; with respect to propranolol): 0.15
Structure (SMILES): C=CCNCC(O)COc1ccc(CNC(=O)CCCCCCCC)cc1OC (stereo not shown) [NHC3 H5, N-[4-0-(2-hydroxy-3-(allylamino)propoxy)-3-methoxybenzyl]-nonamide]
- change in BP ([6]; 5 min after dosing): -1.56 ± 2.03 mmHg
- change in HR ([6]; 5 min after dosing): -36.78 ± 11.25 beats/min
- change in BP ([6]; 10 min after dosing): -2.67 ± 1.96 mmHg
- change in HR ([6]; 10 min after dosing): -28.22 ± 9.00 beats/min
- change in BP ([6]; 15 min after dosing): -1.89 ± 2.04 mmHg
- change in HR ([6]; 15 min after dosing): -19.89 ± 9.26 beats/min
- change in BP ([6]; 30 min after dosing): -1.11 ± 2.62 mmHg
- change in HR ([6]; 30 min after dosing): -5.00 ± 8.72 beats/min
- change in BP ([6]; 60 min after dosing): 4.78 ± 4.96 mmHg
- change in HR ([6]; 60 min after dosing): -7.56 ± 4.14 beats/min

Structure (SMILES): COCCc1ccc(OCC(O)CNC(C)C)cc1 (stereo not shown) [Metoprolol]
- cardioselectivity (β1 and β2 receptors): possess cardioselectivity

— patent US5804603A, “Synthesized β-adrenergic blockers derivatives of guaiacol” (National Science Council, priority 1995, dated 1998)
